In US10940150B2, “Thymine derivatives and quinazoline-dione derivatives for the inhibition of HSP27” (TECHNISCHE UNIVERSITAET DRESDEN, priority 2014, dated 2021):

How the values were obtained:
[1] = test system: RPMI-8226 cells; test: Development of resistance to bortezomib in RPMI-8226 cells; assay type: cell-based
Procedure: The cell line RPMI-8226 (DMSZ 402) is a “multiple myeloma” cell line and was chosen because bortezomib is employed as a standard therapy for multiple myeloma. RPMI-8226 cells respond to bortezomib, express HSP27 and develop resistance to Velcade. RPMI-8226 cells were seeded at a cell count of 100,000 cells/ml in each case and regularly passaged. […] In contrast, for RPMI 8226 cells that were treated with 30 μmol/L BVDU, a final cell count of 160,000 cells/ml was detected whereas the final cell count for the culture without the addition of an HSP27 inhibitor amounted to 350,000 cells/ml. As a control, RPMI 8226 cells were treated with the respective test substances alone, FIG. 4b.

[2] = test system: U937 cells; test: Development of resistance to bortezomib in U937 cells; assay type: cell-based
Procedure: For this purpose, U937 cells (histiocytic lymphoma) were cultured in DMEM culture medium (+10% FCS) at 37° C., 5% CO2 in an H2O-saturated atmosphere. 100,000 cells/ml were seeded and incubated with the cytostatic agent bortezomib (0.1 ng/ml) and the respective test substance (dosage in the current experiment: 1 μM/L acepromazine). The reference substance, BVDU, was employed at a concentration of 30 μM/L. The cells were in each case passaged before the cell count reached 1,000,000 cells/ml. At each passage, 100,000 cells/ml were again seeded and the dose of the cytostatic agent bortezomib was increased stepwise (0.1 ng/mL or 0.05 ng/mL). The concentration of the test substances remained constant. As a result of the stepwise increase in the dosage of the cytostatic agent, resistance developed in the U937 cells. The development of resistance is prevented or inhibited in the case of a positively tested HSP27 inhibitor. The experiments from Example 6 were repeated in the same way, wherein U937 cells (histiocytic lymphoma) are cultured in DMEM culture medium (+10% FCS) at 37° C., 5% CO2 in an H2O-saturated atmosphere. 100,000 cells/ml were seeded and incubated with an initial concentration of 0.2 ng/ml of the cytostatic agent bortezomib and both without an inhibitor and with acepromazine as an HSP27 inhibitor at a concentration of 1 μM/L. The reference substance, BVDU, was employed at a concentration of 30 μM/L. The cells were passaged in each case before the cell count reached 1,000,000 cells/ml. At each passage, 100,000 cells/ml were again seeded and the dose of the cytostatic agent bortezomib was increased stepwise by 0.1 ng/mL. The concentration of the test substance and the reference substance remained constant. As a result of the stepwise increase in the dosage of the cytostatic agent, resistance developed in the U937 cells. The development of resistance is prevented or inhibited in the case of a positively tested HSP27 inhibitor. The cell line U-937 is a histiocytic lymphoma (DSMZ ACC 5). This cell line also responds to treatment with bortezomib, expresses HSP27 and develops resistance to bortezomib. Bortezomib is not the standard therapy for this lymphoma, but is being discussed as a possible therapeutic agent. U-937 cells were seeded with a cell count of 100,000 cells/ml in each case and regularly passaged. […] At the end of the experiment, 70,000 living cells per ml medium could be detected. For the treatment with 30 μmol/L BVDU, a final cell count of 250,000 cells/ml was detected whereas the final cell count in the culture without the addition of an HSP27 inhibitor amounted to 450,000 cells/ml. As a control, U-937 cells were treated with the respective test substances alone, FIG. 10b.

[3] = target: HSP27 (Homo sapiens, UniProt P04792); test: Capillary electrophoresis of heat-denatured citrate synthase protein precipitates; assay type: biochemical; conditions: for Efficacy compared with BVDU: 10 μmol/L vs 750 μmol/L BVDU
Procedure: (§1) Since the heat-denatured protein aggregates of the citrate synthase from Example 1 are not water-soluble, these can be separated completely from the supernatant by means of centrifugation at room temperature at 16,000×g, 10 min. By using capillary electrophoresis, the compositions of the separated precipitates can be shown and quantified. The relative quantity of protein of precipitated citrate synthase serves as a measure of the efficacy of the test substances.
(§2) In each case, 481 nmol/L HSP27 and 1.44 μmol/L citrate synthase in 40 mmol/L HEPES buffer, pH 7.4, were employed. The relative quantity of protein of the precipitated citrate synthase in each case was normalized using a defined quantity of BSA as internal standard. The relative quantity of protein that precipitated when using 750 μmol/L BVDU was set at 1. The other test substances (2 representatives of phenothiazine derivatives of general formula (V), 2 representatives of purine derivatives of formula (I) or (II)) were each employed at a concentration of 10 μmol/L.
as §1, with “Example 2” for “Example 1”
as §2, with “nM” for “nmol/L”, “thymine” for “purine”, “were” for “were each”, “μmol/L in each case.” for “μmol/L.”
Otherwise, the experiments were performed as described above: […]

[4] = test system: RPMI-8226 cells; test: Development of resistance to bortezomib in RPMI-8226 cells; assay type: cell-based; remark: listed apart in the source
[5] = test system: late-stage pancreatic cancer patients; conditions: cited from earlier work

Sequence of HSP27 (P04792 whole entry): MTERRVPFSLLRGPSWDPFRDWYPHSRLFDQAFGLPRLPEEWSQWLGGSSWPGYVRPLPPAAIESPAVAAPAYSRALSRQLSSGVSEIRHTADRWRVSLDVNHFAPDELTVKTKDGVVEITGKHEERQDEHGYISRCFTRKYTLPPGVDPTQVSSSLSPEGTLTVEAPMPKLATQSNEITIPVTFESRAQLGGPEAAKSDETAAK

CC(=O)c1ccc2c(c1)N(CCCN(C)C)c1ccccc1S2 [Acepromazine]
development of resistance to the cytostatic agent bortezomib ([1]; bortezomib 0.2-0.4 ng/ml + 0.75 μmol/L acepromazine (FIG. 4a)): significantly inhibited | living cells at the end of the experiment ([1]; bortezomib 0.2-0.4 ng/ml + 0.75 μmol/L acepromazine (FIG. 4a), without HSP27 inhibitor 350,000 cells/ml): 30,000 living cells per ml medium | development of resistance to the cytostatic agent bortezomib ([2]; bortezomib 0.1-0.5 ng/ml + 0.75 μmol/L acepromazine (FIG. 10a)): significantly inhibited | living cells at the end of the experiment ([2]; bortezomib 0.1-0.5 ng/ml + 0.75 μmol/L acepromazine (FIG. 10a), without HSP27 inhibitor 450,000 cells/ml): 70,000 living cells per ml medium | development of resistance to bortezomib ([2]; bortezomib 0.1 to 0.5 ng/ml stepwise + 1 μM acepromazine (FIG. 2)): no development of resistance occurred | living cells at the end of the experiment ([2]; bortezomib 0.1 to 0.5 ng/ml stepwise + 1 μM acepromazine (FIG. 2), without HSP27 inhibitor 790,000 cells/ml): no living cells were detectable | development of resistance to bortezomib ([2]; bortezomib 0.2 to 0.4 ng/ml stepwise + 1 μM acepromazine (FIG. 3)): no development of resistance occurred | living cells at the end of the experiment ([2]; bortezomib 0.2 to 0.4 ng/ml stepwise + 1 μM acepromazine (FIG. 3), without HSP27 inhibitor 230,000 cells/ml): no living cells were detectable | Efficacy compared with BVDU ([3]; 43° C. for 120 minutes (Table 1)): 74.25 x | Efficacy compared with BVDU ([3]; 43° C. for 120 minutes (Table 2)): 74.25 x | Rel. quantity of protein prec. CS ([3]; 10 μmol/L, 43° C. for 120 minutes, relative to 750 μmol/L BVDU = 1 (Table 1)): 0.99 | Rel. quantity of protein prec. CS ([3]; 10 μmol/L, 43° C. for 120 minutes, relative to 750 μmol/L BVDU = 1 (Table 2)): 0.99

O=c1[nH]c(=O)n([C@H]2C[C@H](O)[C@@H](CO)O2)cc1/C=C/Br [BVDU, (E)-5-(2-bromovinyl)-2′-deoxyuridine]
final cell count ([1]; bortezomib 0.075-0.275 ng/ml + 30 μmol/L BVDU (FIG. 9a), without HSP27 inhibitor 510,000 cells/ml): 340,000 cells/ml | final cell count ([1]; bortezomib 0.2-0.4 ng/ml + 30 μmol/L BVDU (FIG. 4a), without HSP27 inhibitor 350,000 cells/ml): 160,000 cells/ml | final cell count ([1]; bortezomib 0.2-0.4 ng/ml + 30 μmol/L BVDU (FIG. 5a), without HSP27 inhibitor 350,000 cells/ml): 160,000 cells/ml | final cell count ([4]; bortezomib 0.075-0.275 ng/ml + 30 μmol/L BVDU (FIG. 8a), without HSP27 inhibitor 510,000 cells/ml): 340,000 cells/ml | final cell count ([4]; bortezomib 0.1-0.3 ng/ml + 30 μM/L BVDU (FIG. 6a), without HSP27 inhibitor 950,000 cells/ml): 290,000 cells/ml | final cell count ([4]; bortezomib 0.1-0.3 ng/ml + 30 μmol/L BVDU (FIG. 7a), without HSP27 inhibitor 950,000 cells/ml): 290,000 cells/ml | safety and efficacy in patients ([5]; administered dose of 500 mg/day, oral): works safely and efficiently | tolerability in low-weight patients ([5]; increased administered dose of 760 mg/day): proved disadvantageous for low-weight patients | final cell count ([2]; bortezomib 0.1-0.5 ng/ml + 30 μmol/L BVDU (FIG. 10a), without HSP27 inhibitor 450,000 cells/ml): 250,000 cells/ml | final cell count ([2]; bortezomib 0.1-0.5 ng/ml + 30 μmol/L BVDU (FIG. 11a), without HSP27 inhibitor 450,000 cells/ml): 250,000 cells/ml | final cell count ([2]; bortezomib 0.1 to 0.5 ng/ml stepwise + 30 μM BVDU (FIG. 2), without HSP27 inhibitor 790,000 cells/ml): 430,000 cells/ml | final cell count ([2]; bortezomib 0.2 to 0.4 ng/ml stepwise + 30 μM BVDU (FIG. 3), without HSP27 inhibitor 230,000 cells/ml): 60,000 cells/ml | Rel. quantity of protein prec. CS ([3]; 750 μmol/L, 43° C. for 70 minutes, set at 1 (Table 3)): 1 | Rel. quantity of protein prec. CS ([3]; 750 μmol/L, 43° C. for 120 minutes, set at 1 (Table 1)): 1 | Rel. quantity of protein prec. CS ([3]; 750 μmol/L, 43° C. for 120 minutes, set at 1 (Table 2)): 1
